Experimental findings from patent publication US7432288B2, “Pyrrole-2,5-dione derivatives as Liver X receptor modulators” (AstraZeneca AB, priority 2003, dated 2008) are described below.

This assay has as its target T1, LXRalpha and/or beta (human LXR ligand binding domain).
T1 construct: fused on or other part: His-tag (6xHis) on the LXR-LBD
Briefly: Co-activator recruitment assay (time-resolved fluorescence, SRC-1 peptide). Type of assay: biochemical. The conditions noted are these: LXR subtype (alpha or beta) not stated for these values; 22-R Hydroxycholesterol at 50 μM as 100% control; read-out: EC50 in coactivator recruitment assays. From the text: The Ligand Binding Domain (LBD) of human LXRalpha (amino acid 205-447) and LXRbeta (amino acid 216-461) was produced by recombinant techniques in E coli. A fragment of the human Steroid Receptor Co-Activator-1 (SRC-1) was produced as a synthetic peptide. An anti-6His-antibody coupled with Europium (Eu^3+) was used to recognize the His-tag on the LXR-LBD and Allophycocyanin (APC) coupled to streptavidin was used to recognize the biotinylated SRC-1. Agonist binding to LXRalpha or LXRbeta enhances the affinity of LXR towards SRC-1 and thereby brings Eu^3+ and APC in close proximity. Eu^3+ is excited at 337 nm and emitts light at 620 nm. This emission, when in close proximity, excites APC to emit light at 665 nm.
Dilution plates with compounds in DMSO were further diluted in buffer {20 mM [Tris(hydroxymethyl)aminomethane] pH 7.5, 0.125% CHAPS {3-[(3-Cholamidopropyl)dimethylammonio]-1-propanesulfonate}, 2 mM DTT (Dithiothreitol) and 0.05% BSA (Bovine Serum Albumin)} in order to reduce DMSO concentration, 0.5 μl to 13.5 μl. To this, 6 μl assay mix was added and the plates (384-well V-groove plates) were incubated at room temperature for 60 to 80 min. […] Time-resolved fluorescence readings were done in a Wallac Victor reader at 665 nm followed by reading at 615 nm. […]

What is called EC50 is the concentration needed to bring the measured effect to its halfway point.

With `COc1ccc(NC2=C(c3ccccc3)C(=O)N(Cc3cc(C)on3)C2=O)cc1` [Example 22, 3-[(4-Methoxyphenyl)amino]-1-[(5-methylisoxazol-3-yl)methyl]-4-phenyl-1H-pyrrole-2,5-dione], the EC50 was determined as 0.11 µM.

As for `COc1ccc(NC2=C(c3ccccc3)C(=O)N(Cc3ccc(N(C)C)cc3)C2=O)cc1` [Example 13, 1-[4-(Dimethylamino)benzyl]-3-[(4-methoxyphenyl)amino]-4-phenyl-1H-pyrrole-2,5-dione], the EC50 was 0.15 µM.
